Laboratory results: patent publication US9624209B2, “Substituted phenylureas and phenylamides as vanilloid receptor ligands” (Gruenenthal GmbH, priority 2009, dated 2017)

Target: T1, vanilloid receptor 1 (VR1/TRPV1 receptor) (Homo sapiens, UniProt Q8NER1)
T1 construct: expressed in transfected cells; host or cells: CHO K1 cells (ECACC), stably transfected
Assay: VR1/TRPV1 receptor affinity, capsaicin stimulus (human)
Format: cell-based, human being
Settings: @ 5 μM, Tables 8-12, read-out: (f) Ki (human being) [nM] Cap: inhibition (as a percentage)

T1 sequence (Q8NER1 whole entry): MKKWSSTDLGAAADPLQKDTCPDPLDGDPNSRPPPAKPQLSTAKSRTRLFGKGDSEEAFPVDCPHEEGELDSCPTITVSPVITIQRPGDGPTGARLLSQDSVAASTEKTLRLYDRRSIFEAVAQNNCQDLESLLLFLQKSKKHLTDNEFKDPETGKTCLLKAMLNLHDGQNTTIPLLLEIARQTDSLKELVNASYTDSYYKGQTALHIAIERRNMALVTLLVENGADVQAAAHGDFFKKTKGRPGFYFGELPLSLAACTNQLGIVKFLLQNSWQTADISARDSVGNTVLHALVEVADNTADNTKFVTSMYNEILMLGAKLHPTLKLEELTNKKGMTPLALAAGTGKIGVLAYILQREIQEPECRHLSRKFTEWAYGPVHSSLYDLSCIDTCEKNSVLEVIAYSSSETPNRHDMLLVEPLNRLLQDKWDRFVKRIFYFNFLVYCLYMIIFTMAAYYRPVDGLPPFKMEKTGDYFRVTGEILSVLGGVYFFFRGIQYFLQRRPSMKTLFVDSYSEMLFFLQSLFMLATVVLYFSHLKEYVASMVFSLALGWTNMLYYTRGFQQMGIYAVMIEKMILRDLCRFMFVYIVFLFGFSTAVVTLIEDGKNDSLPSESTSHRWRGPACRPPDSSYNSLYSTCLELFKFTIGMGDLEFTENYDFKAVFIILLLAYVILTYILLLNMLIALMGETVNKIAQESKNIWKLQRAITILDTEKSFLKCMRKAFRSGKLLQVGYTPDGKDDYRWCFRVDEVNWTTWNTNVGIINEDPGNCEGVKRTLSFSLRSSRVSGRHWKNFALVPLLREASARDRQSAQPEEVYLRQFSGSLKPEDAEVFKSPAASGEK

inhibition at 5 µM | SMILES
18% | CN(C)Cc1ccc(NC(=O)NCc2cc(C(F)(F)F)nn2-c2cccc(Cl)c2)cc1F [Example B38, 1-[[2-(3-Chlorophenyl)-5-(trifluoromethyl)-2H-pyrazol-3-yl]-methyl]-3-[4-(dimethylaminomethyl)-3-fluoro-phenyl]-urea]
37% | NCc1ccc(NC(=O)NCc2cc(C(F)(F)F)nn2-c2cccc(Cl)c2)cc1F [Example B39, 1-[4-(Aminomethyl)-3-fluoro-phenyl]-3-[[2-(3-chlorophenyl)-5-(trifluoromethyl)-2H-pyrazol-3-yl]-methyl]-urea]

Same assay, conditions: Tables 8-12, read-out: (f) Ki (human being) [nM] Cap

SMILES | Ki
CC(C(=O)NCc1cc(C(C)(C)C)nn1-c1ccc(Cl)cc1)c1ccc(CNS(C)(=O)=O)c(F)c1 (stereo not drawn) [Example B20, N-[[5-tert-Butyl-2-(4-chlorophenyl)-2H-pyrazol-3-yl]-methyl]-2-[3-fluoro-4-(methanesulfonamido-methyl)-phenyl]-propionamide] | 52 nM
CC(C(=O)NCc1cc(C(C)(C)C)nn1-c1ccc(F)cc1)c1ccc(CNS(C)(=O)=O)c(F)c1 (stereo not drawn) [Example B21, N-[[5-tert-Butyl-2-(4-fluorophenyl)-2H-pyrazol-3-yl]-methyl]-2-[3-fluoro-4-(methanesulfonamido-methyl)-phenyl]-propionamide] | 30 nM
CCNCc1ccc(NC(=O)NCc2cc(C(C)(C)C)nn2-c2cccc(Cl)c2)cc1F [Example B25, 1-[[5-tert-Butyl-2-(3-chlorophenyl)-2H-pyrazol-3-yl]-methyl]-3-[4-(ethylamino-methyl)-3-fluoro-phenyl]-urea] | 45 nM
CC(C)(C)c1cc(CNC(=O)Cc2ccc(CNS(C)(=O)=O)c(F)c2)n(-c2cccc(Cl)c2)n1 [Example B26, N-[[5-tert-Butyl-2-(3-chlorophenyl)-2H-pyrazol-3-yl]-methyl]-2-[3-fluoro-4-(methanesulfonamido-methyl)-phenyl]-acetamide] | 12 nM
CS(=O)(=O)NCc1c(F)cc(NC(=O)NCc2cc(C(F)(F)F)nn2-c2cccc(Cl)c2)cc1F [Example B27, 1-[[2-(3-Chlorophenyl)-5-(trifluoromethyl)-2H-pyrazol-3-yl]-methyl]-3-[3,5-difluoro-4-(methanesulfonamido-methyl)-phenyl]-urea] | 8 nM
CC(C)(C)c1cc(CNC(=O)Nc2ccc(CNS(C)(=O)=O)cc2)n(-c2cccc(Cl)c2)n1 [Example B28, 1-[[5-tert-Butyl-2-(3-chlorophenyl)-2H-pyrazol-3-yl]-methyl]-3-[4-(methanesulfonamido-methyl)-phenyl]-urea] | 11 nM
CC(C)(C)c1cc(CNC(=O)Nc2ccc(CNS(C)(=O)=O)c(F)c2)n(-c2cccc(Cl)c2)n1 [Example B31, 1-[[5-tert-Butyl-2-(3-chlorophenyl)-2H-pyrazol-3-yl]-methyl]-3-[3-fluoro-4-(methanesulfonamido-methyl)-phenyl]-urea] | 9 nM
CC(C)(C)c1cc(CNC(=O)Nc2cc(F)c(CNS(C)(=O)=O)c(F)c2)n(-c2cccc(Cl)c2)n1 [Example B32, 1-[[5-tert-Butyl-2-(3-chlorophenyl)-2H-pyrazol-3-yl]-methyl]-3-[3,5-difluoro-4-(methanesulfonamido-methyl)-phenyl]-urea] | 2 nM
NS(=O)(=O)NCc1ccc(NC(=O)NCc2cc(C(F)(F)F)nn2-c2cccc(Cl)c2)cc1 [Example B35, 1-[[2-(3-Chlorophenyl)-5-(trifluoromethyl)-2H-pyrazol-3-yl]-methyl]-3-[4-[(sulfamoylamino)-methyl]-phenyl]-urea] | 9 nM
CC(C)(C)c1cc(CNC(=O)Nc2ccc(CNS(N)(=O)=O)cc2)n(-c2cccc(Cl)c2)n1 [Example B36, 1-[[5-tert-Butyl-2-(3-chlorophenyl)-2H-pyrazol-3-yl]-methyl]-3-[4-[(sulfamoylamino)-methyl]-phenyl]-urea] | 6 nM
CS(=O)(=O)NCc1ccc(NC(=O)NCc2cc(C(F)(F)F)nn2-c2cccc(F)c2)cc1 [Example B44, 1-[[2-(3-Fluorophenyl)-5-(trifluoromethyl)-2H-pyrazol-3-yl]-methyl]-3-[4-(methanesulfonamido-methyl)-phenyl]-urea] | 44 nM
CC(C)(C)c1cc(CNC(=O)Nc2ccc(CNS(C)(=O)=O)cc2)n(-c2cccc(F)c2)n1 [Example B45, 1-[[5-tert-Butyl-2-(3-fluorophenyl)-2H-pyrazol-3-yl]-methyl]-3-[4-(methanesulfonamido-methyl)-phenyl]-urea] | 31 nM
CC(C)(C)c1cc(CNC(=O)Nc2ccc(CNS(N)(=O)=O)c(F)c2)n(-c2cccc(Cl)c2)n1 [Example B46, 1-[[5-tert-Butyl-2-(3-chlorophenyl)-2H-pyrazol-3-yl]-methyl]-3-[3-fluoro-4-[(sulfamoylamino)-methyl]-phenyl]-urea] | 9 nM

Next, values leading:

Ki | SMILES
6 nM | COc1cccc(-n2nc(C(F)(F)F)cc2CNC(=O)C(C)c2ccc(CNS(C)(=O)=O)c(F)c2)c1 (stereo not drawn) [Example B15, 2-[3-Fluoro-4-(methanesulfonamido-methyl)-phenyl]-N-[[2-(3-methoxyphenyl)-5-(trifluoromethyl)-2H-pyrazol-3-yl]-methyl]-propionamide]
2 nM | CCS(=O)(=O)NCc1ccc(C(C)C(=O)NCc2cc(C(C)(C)C)nn2-c2cccc(Cl)c2)cc1F (stereo not drawn) [Example B16, N-[[5-tert-Butyl-2-(3-chlorophenyl)-2H-pyrazol-3-yl]-methyl]-2-[4-[[(ethylsulfonyl)amino]-methyl]-3-fluoro-phenyl]-propionamide]
3 nM | CCS(=O)(=O)NCc1ccc(C(C)C(=O)NCc2cc(C(F)(F)F)nn2-c2cccc(Cl)c2)cc1F (stereo not drawn) [Example B17, N-[[2-(3-Chlorophenyl)-5-(trifluoromethyl)-2H-pyrazol-3-yl]-methyl]-2-[4-[[(ethylsulfonyl)amino]-methyl]-3-fluoro-phenyl]-propionamide]
13 nM | CC(C(=O)NCc1cc(C(F)(F)F)nn1-c1ccc(Cl)cc1)c1ccc(CNS(C)(=O)=O)c(F)c1 (stereo not drawn) [Example B18, N-[[2-(4-Chlorophenyl)-5-(trifluoromethyl)-2H-pyrazol-3-yl]-methyl]-2-[3-fluoro-4-(methanesulfonamido-methyl)-phenyl]-propionamide]
6 nM | CC(C(=O)NCc1cc(C(F)(F)F)nn1-c1ccc(F)c(F)c1)c1ccc(CNS(C)(=O)=O)c(F)c1 (stereo not drawn) [Example B19, N-[[2-(3,4-Difluoro-phenyl)-5-(trifluoromethyl)-2H-pyrazol-3-yl]-methyl]-2-[3-fluoro-4-(methanesulfonamido-methyl)-phenyl]-propionamide]
3 nM | CC(C(=O)NCc1cc(C(F)(F)F)nn1-c1cccc(Cl)c1)c1ccc(CNS(C)(=O)=O)c(Cl)c1 (stereo not drawn) [Example B22, 2-[3-Chloro-4-(methanesulfonamido-methyl)-phenyl]-N-[[2-(3-chlorophenyl)-5-(trifluoromethyl)-2H-pyrazol-3-yl]-methyl]-propionamide]
13 nM | CS(=O)(=O)NCc1ccc(CC(=O)NCc2cc(C(F)(F)F)nn2-c2cccc(Cl)c2)cc1F [Example B23, N-[[2-(3-Chlorophenyl)-5-(trifluoromethyl)-2H-pyrazol-3-yl]-methyl]-2-[3-fluoro-4-(methanesulfonamido-methyl)-phenyl]-acetamide]
55 nM | CCNCc1ccc(NC(=O)NCc2cc(C(F)(F)F)nn2-c2cccc(Cl)c2)cc1F [Example B24, 1-[[2-(3-Chlorophenyl)-5-(trifluoromethyl)-2H-pyrazol-3-yl]-methyl]-3-[4-(ethylamino-methyl)-3-fluoro-phenyl]-urea]
59 nM | CC(C(=O)NCc1cc(C(F)(F)F)nn1-c1cccc(Cl)c1)c1ccc(CN(C)S(C)(=O)=O)c(F)c1 (stereo not drawn) [Example B29, N-[[2-(3-Chlorophenyl)-5-(trifluoromethyl)-2H-pyrazol-3-yl]-methyl]-2-[3-fluoro-4-[(methyl-methylsulfonyl-amino)-methyl]-phenyl]-propionamide]
39 nM | CC(C(=O)NCc1cc(C(C)(C)C)nn1-c1cccc(Cl)c1)c1ccc(CN(C)S(C)(=O)=O)c(F)c1 (stereo not drawn) [Example B30, N-[[5-tert-Butyl-2-(3-chlorophenyl)-2H-pyrazol-3-yl]-methyl]-2-[3-fluoro-4-[(methyl-methylsulfonyl-amino)-methyl]-phenyl]-propionamide]
46 nM | CS(=O)(=O)NCc1ccc(CC(=O)NCc2cc(C(F)(F)F)nn2-c2cccc(F)c2)cc1F [Example B37, 2-[3-Fluoro-4-(methanesulfonamido-methyl)-phenyl]-N-[[2-(3-fluorophenyl)-5-(trifluoromethyl)-2H-pyrazol-3-yl]-methyl]-acetamide]
92 nM | CC(C)(C)c1cc(CNC(=O)Nc2ccc(CN)c(F)c2)n(-c2cccc(Cl)c2)n1 [Example B40, 1-[4-(Aminomethyl)-3-fluoro-phenyl]-3-[[5-tert-butyl-2-(3-chlorophenyl)-2H-pyrazol-3-yl]-methyl]-urea]
74 nM | NS(=O)(=O)NCc1ccc(NC(=O)NCc2cc(C(F)(F)F)nn2-c2cccc(Cl)c2)cc1F [Example B41, 1-[[2-(3-Chlorophenyl)-5-(trifluoromethyl)-2H-pyrazol-3-yl]methyl]-3-[3-fluoro-4-[(sulfamoylamino)-methyl]-phenyl]-urea]
46 nM | CC(C(=O)NCc1cc(C(F)(F)F)nn1-c1cccc(Cl)c1)c1ccc(CN)c(F)c1 (stereo not drawn) [Example B42, 2-[4-(Aminomethyl)-3-fluoro-phenyl]-N-[[2-(3-chlorophenyl)-5-(trifluoromethyl)-2H-pyrazol-3-yl]-methyl]-propionamide]
1 nM | CC(C(=O)NCc1cc(C(C)(C)C)nn1-c1cccc(C(F)(F)F)c1)c1ccc(CNS(C)(=O)=O)c(F)c1 (stereo not drawn) [Example B43, N-[[5-tert-Butyl-2-[3-(trifluoromethyl)phenyl]-2H-pyrazol-3-yl]-methyl]-2-[3-fluoro-4-(methanesulfonamido-methyl)-phenyl]-propionamide]
